Measured values from publication PMC3494675, “Structure-Function Analysis of the Glioma Targeting NFL-TBS.40-63 Peptide Corresponding to the Tubulin-Binding Site on the Light Neurofilament Subunit” (PLoS ONE, 2012).
Peptide text beside a SMILES is read from it. * marks the point of attachment. Biotin = O=C1N[C@H]2[C@H](CS[C@H]2CCCCC(=O)*)N1

How the values were obtained:
[1] = test system: T98G human glioblastoma cells; test: Peptide incorporation into T98G cells (immunocytochemistry, cell counting); assay type: cell-based; conditions: 6 hours; for Peptide incorporation (% of cells): T98G cells, 10 µM biotinylated peptide, Alexa-labeled avidin/streptavidin fluorescence microscopy, minimum 200 cells per experiment, mean ± S.E.M., triplicated
Experimental: (§1) Cells containing the biotinylated peptide were detected using Alexa-labeled avidin (green fluorescence) and those displaying a normal or a destroyed MT network were detected with an anti-tubulin antibody (red fluorescence) ( Figure 1A-B ). Then, we counted a minimum of 200 cells per slide containing or not the peptide, and with a normal or destroyed microtubule network ( Figure 1C ). As illustrated on Figure 1A glioblastoma cells contain a rich MT network. […] Cells were plated on cover slips and cultured in media containing biotinylated peptides (10 μM) for 6 hours. […] The cells were then incubated during 10 min in a 0.5% triton X-100 permeabilization solution, and washed 3 times in PBS. Next, they were incubated in a blocking solution (PBS 5% BSA) for 15 min, then incubated with mouse anti-ß-tubulin antibody (Sigma) 1/200 overnight. Tubulin and biotinylated peptides were localized using respectively Alexa 568 nm anti-mouse antibody and streptavidin Alexa 488 nm (Molecular Probes) 1/200 for 1 hour, followed by washing in PBS. […] Sigma) for 5 min, washed twice with PBS, then cover slips were mounted with an antifading solution. Observations were performed with an Olympus confocal microscope (BX50) using Fluoview.3.1. Software or a Leica DMI6000 inverted microscope and analyzed with Metamorph 7.1.7.0. software. We counted cells containing the peptide and cells displaying a destroyed MT network. Experiments were repeated at least three times, and a minimum of 200 cells was scored during each experiment.

[2] = test system: T98G human glioblastoma cells; test: Disintegration of the microtubule network in T98G cells (anti-tubulin immunostaining, cell counting); assay type: cell-based; conditions: T98G cells, 10 µM biotinylated peptide, 6 hours; anti-tubulin immunostaining; minimum 200 cells per experiment; mean ± S.E.M., triplicated
Experimental: as §1

| SMILES | Peptide incorporation (% of cells) [1] | Disintegration of MT (% of cells) [2] | Cell penetration / internalization in T98G cells (in words) ([1]; 10 µM, immunocytochemistry, compared to original NFL-TBS.40-63) |
| --- | --- | --- | --- |
| CC(C)C[C@H](NC(=O)[C@H](CO)NC(=O)[C@H](CO)NC(=O)[C@H](CO)NC(=O)[C@@H](NC(=O)[C@@H]1CCCN1C(=O)[C@H](C)NC(=O)[C@H](CO)NC(=O)[C@H](Cc1ccc(O)cc1)NC(=O)[C@H](CO)NC(=O)[C@H](CO)NC(=O)[C@H](Cc1ccc(O)cc1)NC(=O)CCCC[C@@H]1SC[C@@H]2NC(=O)N[C@@H]21)C(C)C)C(=O)N[C@@H](CO)C(=O)N[C@H](C(=O)N[C@@H](CCCNC(=N)N)C(=O)N[C@@H](CCCNC(=N)N)C(=O)N[C@@H](CO)C(=O)N[C@@H](Cc1ccc(O)cc1)C(=O)N[C@@H](CO)C(=O)N[C@@H](CO)C(=O)N[C@@H](CO)C(=O)N[C@@H](CO)C(=O)NCC(=O)N[C@@H](CO)C(N)=O)C(C)C [Ala6Ala] (Biotin-YSSYSAPVSSSLSVRRSYSSSSGS-NH2) | 50.3±4.6 % of cells | 48.1±6.6 % of cells | – |
| CC(C)C[C@H](NC(=O)[C@H](CO)NC(=O)[C@H](CO)NC(=O)[C@H](CO)NC(=O)[C@@H](NC(=O)[C@@H]1CCCN1C(=O)[C@H](C)NC(=O)[C@H](CO)NC(=O)[C@H](Cc1ccc(O)cc1)NC(=O)[C@H](CO)NC(=O)[C@H](CO)NC(=O)[C@H](Cc1ccc(O)cc1)NC(=O)CCCC[C@@H]1SC[C@@H]2NC(=O)N[C@@H]21)C(C)C)C(=O)N[C@@H](CO)C(=O)N[C@H](C(=O)N[C@@H](C)C(=O)N[C@@H](CCCNC(=N)N)C(=O)N[C@@H](CO)C(=O)N[C@@H](Cc1ccc(O)cc1)C(=O)N[C@@H](CO)C(=O)N[C@@H](CO)C(=O)N[C@@H](CO)C(=O)N[C@@H](CO)C(=O)NCC(=O)N[C@@H](CO)C(N)=O)C(C)C [Arg15Ala] (Biotin-YSSYSAPVSSSLSVARSYSSSSGS-NH2) | 18.1±1.3 % of cells | 25.5±6.3 % of cells | – |
| CC(C)C[C@H](NC(=O)[C@H](CO)NC(=O)[C@H](CO)NC(=O)[C@H](CO)NC(=O)[C@@H](NC(=O)[C@@H]1CCCN1C(=O)[C@H](C)NC(=O)[C@H](CO)NC(=O)[C@H](Cc1ccc(O)cc1)NC(=O)[C@H](CO)NC(=O)[C@H](CO)NC(=O)[C@H](Cc1ccc(O)cc1)NC(=O)CCCC[C@@H]1SC[C@@H]2NC(=O)N[C@@H]21)C(C)C)C(=O)N[C@@H](CO)C(=O)N[C@H](C(=O)N[C@@H](CCCNC(=N)N)C(=O)N[C@@H](C)C(=O)N[C@@H](CO)C(=O)N[C@@H](Cc1ccc(O)cc1)C(=O)N[C@@H](CO)C(=O)N[C@@H](CO)C(=O)N[C@@H](CO)C(=O)N[C@@H](CO)C(=O)NCC(=O)N[C@@H](CO)C(N)=O)C(C)C [Arg16Ala] (Biotin-YSSYSAPVSSSLSVRASYSSSSGS-NH2) | 0 % of cells | 15.6±3.0 % of cells | – |
| CC(C)C[C@H](NC(=O)[C@H](CO)NC(=O)[C@H](CO)NC(=O)[C@H](CO)NC(=O)[C@@H](NC(=O)[C@@H]1CCCN1C(=O)[C@H](C)NC(=O)[C@H](CO)NC(=O)[C@H](Cc1ccc(O)cc1)NC(=O)[C@H](CO)NC(=O)[C@H](CO)NC(=O)[C@H](Cc1ccc(O)cc1)NC(=O)CCCC[C@@H]1SC[C@@H]2NC(=O)N[C@@H]21)C(C)C)C(=O)N[C@@H](CO)C(=O)N[C@H](C(=O)N[C@@H](CCCNC(=N)N)C(=O)N[C@@H](CCCCN)C(=O)N[C@@H](CO)C(=O)N[C@@H](Cc1ccc(O)cc1)C(=O)N[C@@H](CO)C(=O)N[C@@H](CO)C(=O)N[C@@H](CO)C(=O)N[C@@H](CO)C(=O)NCC(=O)N[C@@H](CO)C(N)=O)C(C)C [Arg16Lys] (Biotin-YSSYSAPVSSSLSVRKSYSSSSGS-NH2) | 32.9±1.3 % of cells | 36.9±0.9 % of cells | – |
| CC(C)C[C@H](NC(=O)[C@H](CO)NC(=O)[C@H](CO)NC(=O)[C@H](CO)NC(=O)[C@@H](NC(=O)[C@@H]1CCCN1C(=O)[C@H](C)NC(=O)[C@H](CO)NC(=O)[C@H](Cc1ccc(O)cc1)NC(=O)[C@H](CO)NC(=O)[C@H](CO)NC(=O)[C@H](Cc1ccc(O)cc1)NC(=O)CCCC[C@@H]1SC[C@@H]2NC(=O)N[C@@H]21)C(C)C)C(=O)N[C@@H](CO)C(=O)N[C@H](C(=O)N[C@@H](CCCNC(=N)N)C(=O)N[C@@H](CCCNC(=N)N)C(=O)N[C@@H](CO)C(=O)N[C@@H](Cc1ccc(O)cc1)C(=O)N[C@@H](CO)C(=O)N[C@@H](CO)C(=O)N[C@@H](CO)C(=O)N[C@@H](CO)C(=O)N[C@@H](C)C(=O)N[C@@H](CO)C(N)=O)C(C)C [Gly23Ala] (Biotin-YSSYSAPVSSSLSVRRSYSSSSAS-NH2) | 6.2±6.2 % of cells | 16.9±4.5 % of cells | only weak cell-penetrating activity |
| CC(C)[C@H](NC(=O)[C@H](CO)NC(=O)[C@H](C)NC(=O)[C@H](CO)NC(=O)[C@H](CO)NC(=O)[C@H](CO)NC(=O)[C@@H](NC(=O)[C@@H]1CCCN1C(=O)[C@H](C)NC(=O)[C@H](CO)NC(=O)[C@H](Cc1ccc(O)cc1)NC(=O)[C@H](CO)NC(=O)[C@H](CO)NC(=O)[C@H](Cc1ccc(O)cc1)NC(=O)CCCC[C@@H]1SC[C@@H]2NC(=O)N[C@@H]21)C(C)C)C(=O)N[C@@H](CCCNC(=N)N)C(=O)N[C@@H](CCCNC(=N)N)C(=O)N[C@@H](CO)C(=O)N[C@@H](Cc1ccc(O)cc1)C(=O)N[C@@H](CO)C(=O)N[C@@H](CO)C(=O)N[C@@H](CO)C(=O)N[C@@H](CO)C(=O)NCC(=O)N[C@@H](CO)C(N)=O [Leu12Ala] (Biotin-YSSYSAPVSSSASVRRSYSSSSGS-NH2) | 0 % of cells | 15.5±2.8 % of cells | – |
| CC(C)[C@H](NC(=O)[C@H](CO)NC(=O)[C@@H](NC(=O)[C@H](CO)NC(=O)[C@H](CO)NC(=O)[C@H](CO)NC(=O)[C@@H](NC(=O)[C@@H]1CCCN1C(=O)[C@H](C)NC(=O)[C@H](CO)NC(=O)[C@H](Cc1ccc(O)cc1)NC(=O)[C@H](CO)NC(=O)[C@H](CO)NC(=O)[C@H](Cc1ccc(O)cc1)NC(=O)CCCC[C@@H]1SC[C@@H]2NC(=O)N[C@@H]21)C(C)C)C(C)C)C(=O)N[C@@H](CCCNC(=N)N)C(=O)N[C@@H](CCCNC(=N)N)C(=O)N[C@@H](CO)C(=O)N[C@@H](Cc1ccc(O)cc1)C(=O)N[C@@H](CO)C(=O)N[C@@H](CO)C(=O)N[C@@H](CO)C(=O)N[C@@H](CO)C(=O)NCC(=O)N[C@@H](CO)C(N)=O [Leu12Val] (Biotin-YSSYSAPVSSSVSVRRSYSSSSGS-NH2) | 58.6±5.0 % of cells | 43.8±1.7 % of cells | – |
| CC(C)C[C@H](NC(=O)[C@H](CO)NC(=O)[C@H](CO)NC(=O)[C@H](CO)NC(=O)[C@@H](NC(=O)[C@H](C)NC(=O)[C@H](C)NC(=O)[C@H](CO)NC(=O)[C@H](Cc1ccc(O)cc1)NC(=O)[C@H](CO)NC(=O)[C@H](CO)NC(=O)[C@H](Cc1ccc(O)cc1)NC(=O)CCCC[C@@H]1SC[C@@H]2NC(=O)N[C@@H]21)C(C)C)C(=O)N[C@@H](CO)C(=O)N[C@H](C(=O)N[C@@H](CCCNC(=N)N)C(=O)N[C@@H](CCCNC(=N)N)C(=O)N[C@@H](CO)C(=O)N[C@@H](Cc1ccc(O)cc1)C(=O)N[C@@H](CO)C(=O)N[C@@H](CO)C(=O)N[C@@H](CO)C(=O)N[C@@H](CO)C(=O)NCC(=O)N[C@@H](CO)C(N)=O)C(C)C [Pro7Ala] (Biotin-YSSYSAAVSSSLSVRRSYSSSSGS-NH2) | 16.7±4.6 % of cells | 26.6±5.9 % of cells | – |
| CC(C)C[C@H](NC(=O)[C@H](CO)NC(=O)[C@H](CO)NC(=O)[C@H](CO)NC(=O)[C@@H](NC(=O)[C@@H]1CCCN1C(=O)[C@H](C)NC(=O)[C@H](CO)NC(=O)[C@H](Cc1ccc(O)cc1)NC(=O)[C@H](CO)NC(=O)[C@H](C)NC(=O)[C@H](Cc1ccc(O)cc1)NC(=O)CCCC[C@@H]1SC[C@@H]2NC(=O)N[C@@H]21)C(C)C)C(=O)N[C@@H](CO)C(=O)N[C@H](C(=O)N[C@@H](CCCNC(=N)N)C(=O)N[C@@H](CCCNC(=N)N)C(=O)N[C@@H](CO)C(=O)N[C@@H](Cc1ccc(O)cc1)C(=O)N[C@@H](CO)C(=O)N[C@@H](CO)C(=O)N[C@@H](CO)C(=O)N[C@@H](CO)C(=O)NCC(=O)N[C@@H](CO)C(N)=O)C(C)C [Ser2Ala] (Biotin-YASYSAPVSSSLSVRRSYSSSSGS-NH2) | 5.9±6.4 % of cells | 23.5±1.1 % of cells | – |
| CC(C)C[C@H](NC(=O)[C@H](CO)NC(=O)[C@H](CO)NC(=O)[C@H](CO)NC(=O)[C@@H](NC(=O)[C@@H]1CCCN1C(=O)[C@H](C)NC(=O)[C@H](CO)NC(=O)[C@H](Cc1ccc(O)cc1)NC(=O)[C@H](C)NC(=O)[C@H](CO)NC(=O)[C@H](Cc1ccc(O)cc1)NC(=O)CCCC[C@@H]1SC[C@@H]2NC(=O)N[C@@H]21)C(C)C)C(=O)N[C@@H](CO)C(=O)N[C@H](C(=O)N[C@@H](CCCNC(=N)N)C(=O)N[C@@H](CCCNC(=N)N)C(=O)N[C@@H](CO)C(=O)N[C@@H](Cc1ccc(O)cc1)C(=O)N[C@@H](CO)C(=O)N[C@@H](CO)C(=O)N[C@@H](CO)C(=O)N[C@@H](CO)C(=O)NCC(=O)N[C@@H](CO)C(N)=O)C(C)C [Ser3Ala] (Biotin-YSAYSAPVSSSLSVRRSYSSSSGS-NH2) | 0.8±1.2 % of cells | 19.1±0.9 % of cells | – |
